From US12473289B2, “Heterocyclic compounds as delta-5 desaturase inhibitors and methods of use” (Amgen Inc., priority 2019, dated 2025)

Each compound was assayed against Delta-5-Desaturase (D5D) (Homo sapiens (Human), UniProt O60427) (assay: In vitro measurement of Delta-5-Desaturase inhibitory activity using DGLA-CoA and Arachidonyl-CoA mass spectrometric assays). Details: membrane preparations of D5D-overexpressing HEK293 6E cells; averaged over at least two independent runs.
Assay type: biochemical
Description: In vitro Measurement of Delta-5-Desaturase Inhibitory Activity using DGLA-CoA and Arachidonyl-CoA Mass Spectrometric Assays
Membrane preparations of D5D-overexpressing HEK293 6E cells were prepared in which the total protein concentration was 5.6 mg/mL. Stock D5D membrane preparations were diluted in D5D assay buffer (25 mM 2-amino-2-(hydroxymethyl)-1,3-propanediol, pH 7.5 containing 10 mM MgCl2, 1 mM octyl glucoside (SigmaAldrich 0-8001), 1 mM tris(2-carboxyethyl)phosphine hydrochloride (SigmaAldrich 646547)) to a final D5D membrane concentration of 10 μg/mL in an assay plate containing serially diluted test compounds. To 15 μL of this D5D preparation was added 15 μL of a substrate solution (0.25 mM NADH (nicotinamide adenine dinucleotide, Roche Diag. 10107735001), 0.25 mM adenosine triphosphate (SigmaAldrich A-3377), 0.05 mM coenzyme A hydrate (SigmaAldrich C-4282), and 0.01 mM DGLA (dihomo-g-linolenic acid, Sigma E-4504) in the same D5D assay buffer. After one-hour incubation at ambient temperature acetonitrile (30 μL) was added to quench the reaction and plates were centrifuged for 10 min @3,000 rpm. Mass spectrometric analysis involved a Rapidfire 360 SPE system coupled to an ABSciex API4000 Triple Quadrupole mass spectrometer using a C18 SPE cartridge (G9203-80105) with ionization in negative mode (solvent A=100% water; solvent B=100% acetonitrile, each solvent containing 5 mM ammonium acetate). DGLA-CoA and Arachidonyl-CoA were detected by multiple reaction monitoring (MRM) of the doubly charged parent ions at m/z 526.6 and 525.6, respectively.
Sx is value from unknown sample, So is value from DMSO alone and Sc is value from no enzyme well. For CRC analysis, the % of inhibitions were analyzed with 4 Parameter Logistic Model or Sigmoidal Dose-Response Model using XLfit (IDBS, Guilford, UK). The potency of the test item was expressed as IC50 nM, corresponding to the test item concentration able to inhibit the 50% of the enzyme maximal response. IC50 values were averaged values determined by at least two independent runs.
This assay may be used to test any of the compounds described herein to assess and characterize a compound's ability to inhibit D5D.

Delta-5-Desaturase (D5D), sequence (O60427 whole entry, species assumed): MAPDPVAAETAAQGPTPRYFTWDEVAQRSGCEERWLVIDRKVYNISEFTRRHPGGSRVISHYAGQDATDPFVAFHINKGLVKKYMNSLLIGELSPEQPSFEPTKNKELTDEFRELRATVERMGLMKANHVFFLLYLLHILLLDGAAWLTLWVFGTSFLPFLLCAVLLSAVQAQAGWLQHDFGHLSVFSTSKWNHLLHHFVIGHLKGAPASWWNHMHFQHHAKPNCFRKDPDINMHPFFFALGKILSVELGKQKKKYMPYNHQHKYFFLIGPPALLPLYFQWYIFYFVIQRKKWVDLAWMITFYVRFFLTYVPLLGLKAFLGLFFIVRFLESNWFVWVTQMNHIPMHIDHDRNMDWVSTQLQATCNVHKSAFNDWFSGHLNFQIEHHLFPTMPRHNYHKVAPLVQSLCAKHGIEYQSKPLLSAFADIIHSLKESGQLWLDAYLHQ

SMILES	IC50
CCCc1cc(-c2c(C(F)(F)F)nc3cc(OC)ccn3c2=O)no1 [Example 61, 8-Methoxy-3-(5-propyl-1,2-oxazol-3-yl)-2-(trifluoromethyl)-4H-pyrido[1,2-a]pyrimidin-4-one]	46.9 nM
COc1ccn2c(=O)c(-c3ccc(O[C@H](C)C#N)cc3)c(C(F)(F)F)nc2c1 [Example 8-8, (2R)-2-(4-(8-methoxy-4-oxo-2-(trifluoromethyl)-4H-pyrido[1,2-a]pyrimidin-3-yl)phenoxy)propanenitrile]	566 nM
COc1ccn2c(=O)c(-c3cnc(OCC(F)(F)F)nc3)c(C(F)(F)F)nc2c1 [Example 37, 8-Methoxy-3-[2-(2,2,2-trifluoroethoxy)pyrimidin-5-yl]-2-(trifluoromethyl)-4H-pyrido[1,2-a]pyrimidin-4-one]	87.6 nM
COc1ccn2c(=O)c(-c3ccc(CCC#N)cc3)c(C(F)(F)F)nc2c1 [Example 1-1, 3-(4-(8-Methoxy-4-oxo-2-(trifluoromethyl)-4H-pyrido[1,2-a]pyrimidin-3-yl)phenyl)propanenitrile]	197 nM
COc1ccn2c(=O)c(-c3cnn(-c4cccc(F)c4)c3)c(C(F)(F)F)nc2c1 [Example 1-18, 3-(1-(3-fluorophenyl)-1H-pyrazol-4-yl)-8-methoxy-2-(trifluoromethyl)-4H-pyrido[1,2-a]pyrmidin-4-one]	25.2 nM
COc1ccn2c(=O)c(-c3cc(CC(F)(F)C(F)(F)F)no3)c(C(F)(F)F)nc2c1 [Example 60, 8-Methoxy-3-[3-(2,2,3,3,3-pentafluoropropyl)-1,2-oxazol-5-yl]-2-(trifluoromethyl)-4H-pyrido[1,2-a]pyrimidin-4-one]	74.9 nM
CC1(c2ccn3c(=O)c(-c4ccc(OCC(F)(F)F)cc4)c(C(F)(F)F)nc3c2)CCO1 (centres unmarked) [Example 27, 8-(2-Methyl-2-oxetanyl)-3-(4-(2,2,2-trifluoroethoxy)phenyl)-2-(trifluoromethyl)-4H-pyrido[1,2-a]pyrimidin-4-one]	553 nM
Cc1ccn2c(=O)c(-c3ccc(OCC(F)(F)F)cc3)c(C(F)(F)F)nc2c1 [Example 1-78, 8-methyl-3-(4-(2,2,2-trifluoroethoxy)phenyl)-2-(trifluoromethyl)-4H-pyrido[1,2-a]pyrimidin-4-one]	2.7 nM
COc1ccn2c(=O)c(-c3ccc(OCC(F)(F)F)cc3Cl)c(C(F)(F)F)nc2c1 [Example 8-3, 3-(2-chloro-4-(2,2,2-trifluoroethoxy)phenyl)-8-methoxy-2-(trifluoromethyl)-4H-pyrido[1,2-a]pyrimidin-4-one]	22.5 nM
COc1nc2nc(C(F)(F)F)c(-c3cnn(CC(F)(F)C(F)(F)F)c3)c(=O)n2cc1F [Example 42, 7-Fluoro-8-methoxy-3-[1-(2,2,3,3,3-pentafluoropropyl)-1H-pyrazol-4-yl]-2-(trifluoromethyl)-4H-[1,3]diazino[1,2-a]pyrimidin-4-one]	168 nM
[2H]C([2H])([2H])Oc1ccn2c(=O)c(-c3ccc(OCC(F)(F)F)nc3)c(C(F)(F)F)nc2c1 [Example 1-64, 8-(methyloxy-d3)-3-(6-(2,2,2-trifluoroethoxy)-3-pyridinyl)-2-(trifluoromethyl)-4H-pyrido[1,2-a]pyrimidin-4-one]	21.5 nM
O=c1ccn2c(=O)c(-c3cnn(CC(F)(F)C(F)(F)F)c3)c(C(F)(F)F)nc2n1CCl [Example 65, 1-(Chloromethyl)-7-[1-(2,2,3,3,3-pentafluoropropyl)-1H-pyrazol-4-yl]-8-(trifluoromethyl)-1H,2H,6H-pyrimido[1,2-a][1,3]diazine-2,6-dione]	90.5 nM
COc1cc2nc(C(F)(F)F)c(-c3cnn(CC(F)(F)C(F)(F)F)c3)c(=O)n2cc1Cl [Example 1-45, 7-chloro-8-methoxy-3-[1-(2,2,3,3,3-pentafluoropropyl)-1H-pyrazol-4-yl]-2-(trifluoromethyl)-4H-pyrido[1,2-a]pyrimidin-4-one]	86.1 nM
O=c1c(-c2cnn(CC(F)(F)C(F)(F)F)c2)c(C(F)(F)F)nc2cc(O)c(F)cn12 [Example 43, 7-Fluoro-8-hydroxy-3-[1-(2,2,3,3,3-pentafluoropropyl)-1H-pyrazol-4-yl]-2-(trifluoromethyl)-4H-pyrido[1,2-a]pyrimidin-4-one]	742 nM
O=c1c(-c2cnn(CC(F)(F)C(F)(F)F)c2)c(C(F)(F)F)nc2cc(C3CC3)ccn12 [Example 1-87, 8-cyclopropyl-3-(1-(2,2,3,3,3-pentafluoropropyl)-1H-pyrazol-4-yl)-2-(trifluoromethyl)-4H-pyrido[1,2-a]pyrimidin-4-one]	85.9 nM
CC(=O)c1ccn2c(=O)c(-c3ccc(OCC(F)(F)F)cc3)c(C(F)(F)F)nc2c1 [Example 1-25, 8-acetyl-3-(4-(2,2,2-trifluoroethoxy)phenyl)-2-(trifluoromethyl)-4H-pyrido[1,2-a]pyrimidin-4-one]	6.4 nM
O=C(O)c1ccn2c(=O)c(-c3cnn(CC(F)(F)C(F)(F)F)c3)c(C(F)(F)F)nc2c1 [Example 1-21, 4-oxo-3-(1-(2,2,3,3,3-pentafluoropropyl)-1H-pyrazol-4-yl)-2-(trifluoromethyl)-4H-pyrido[1,2-a]pyrimidine-8-carboxylic acid]	3390 nM
O=c1c(-c2cnn(CC(F)(F)C(F)(F)F)c2)c(C(F)(F)F)nc2cc(OCCl)cnn12 [Example 48, 8-(Chloromethoxy)-3-[1-(2,2,3,3,3-pentafluoropropyl)-1H-pyrazol-4-yl]-2-(trifluoromethyl)-4H-pyrimido[1,2-b]pyridazin-4-one]	119 nM
COc1ccn2c(=O)c(-c3ccc(O[C@H](C)C#N)cc3)c(C(F)(F)F)nc2n1 [Example 8-6, (2R)-2-(4-(8-methoxy-4-oxo-2-(trifluoromethyl)-4H-pyrimido[1,2-a]pyrimidin-3-yl)phenoxy)propanenitrile]	23.5 nM

More lines, now with the values ahead:

IC50	SMILES
> 67000 nM	O=c1c(-c2cnc(OCC(F)(F)F)nc2)c(C(F)(F)F)nc2ccc(Cl)cn12 [Example 39-18, 7-chloro-3-[2-(2,2,2-trifluoroethoxy)pyrimidin-5-yl]-2-(trifluoromethyl)-4H-pyrido[1,2-a]pyrimidin-4-one]
28 nM	Cc1cn2c(=O)c(-c3cnn(CC(F)(F)C(F)(F)F)c3)c(C(F)(F)F)nc2cn1 [Example 39-31, 7-methyl-3-[1-(2,2,3,3,3-pentafluoropropyl)-1H-pyrazol-4-yl]-2-(trifluoromethyl)-4H-pyrazino[1,2-a]pyrimidin-4-one]
51.1 nM	Cc1cc2nc(C(F)(F)F)c(-c3cnn(CCC(F)(F)F)c3)c(=O)n2cc1Cl [Example 41-2, 7-chloro-8-methyl-2-(trifluoromethyl)-3-[1-(3,3,3-trifluoropropyl)-1H-pyrazol-4-yl]-4H-pyrido[1,2-a]pyrimidin-4-one]
44400 nM	COc1ccc2nc(C(F)(F)F)c(-c3cnn(CC(F)(F)C(F)(F)F)c3)c(=O)n2n1 [Example 39-14, 7-methoxy-3-[1-(2,2,3,3,3-pentafluoropropyl)-1H-pyrazol-4-yl]-2-(trifluoromethyl)-4H-pyrimido[1,2-b]pyridazin-4-one]
20.4 nM	COc1cc2nc(C(F)(F)F)c(-c3cnn(CCC(F)(F)F)c3)c(=O)n2cc1F [Example 39-58, 7-fluoro-8-methoxy-2-(trifluoromethyl)-3-[1-(3,3,3-trifluoropropyl)-1H-pyrazol-4-yl]-4H-pyrido[1,2-a]pyrimidin-4-one]
74.2 nM	C[C@H](O)c1ccn2c(=O)c(-c3ccc(OCC(F)(F)F)cc3)c(C(F)(F)F)nc2c1 [Example 30-1, 8-((1S)-1-hydroxyethyl)-3-(4-(2,2,2-trifluoroethoxy)phenyl)-2-(trifluoromethyl)-4H-pyrido[1,2-a]pyrimidin-4-one]
19.9 nM	Cc1ccc2nc(C(F)(F)F)c(-c3cnn(CCC(F)(F)F)c3)c(=O)n2n1 [Example 39-33, 7-methyl-2-(trifluoromethyl)-3-[1-(3,3,3-trifluoropropyl)-1H-pyrazol-4-yl]-4H-pyrimido[1,2-b]pyridazin-4-one]
8.9 nM	O=c1c(-c2cnn(CC(F)(F)C(F)(F)F)c2)c(C(F)(F)F)nc2ccccn12 [Example 39-5, 3-[1-(2,2,3,3,3-pentafluoropropyl)-1H-pyrazol-4-yl]-2-(trifluoromethyl)-4H-pyrido[1,2-a]pyrimidin-4-one]
235 nM	C[S@+]([O-])c1ccn2c(=O)c(-c3ccc(OCC(F)(F)F)cc3)c(C(F)(F)F)nc2c1 [Example 15-3, 8-((S)-methylsulfinyl)-3-(4-(2,2,2-trifluoroethoxy)phenyl)-2-(trifluoromethyl)-4H-pyrido[1,2-a]pyrimidin-4-one]
185 nM	CC[S@@+]([O-])c1ccn2c(=O)c(-c3ccc(OCC(F)(F)F)cc3)c(C(F)(F)F)nc2c1 [Example 15-8, 8-((R)-ethylsulfinyl)-3-(4-(2,2,2-trifluoroethoxy)phenyl)-2-(trifluoromethyl)-4H-pyrido[1,2-a]pyrimidin-4-one]
